Data reported in patent US10183943B2, “Heterocyclic compounds and their use in preventing or treating bacterial infections” (MUTABILIS, priority 2015, dated 2019).
pIC50: −log10 of the molar value. Counter-ions that a name gives are not always drawn.

Assays:
[1] = molecular target: T1, OXA-15 (Pseudomonas aeruginosa, UniProt Q51574); assay: biochemical
T1 construct: made in house; host or cells: E. coli

[2] = molecular target: AmpC P. aeruginosa (Pseudomonas aeruginosa, UniProt P24735); assay: β-lactamase inhibitory activity, determination of IC50 (nitrocefin hydrolysis)
[3] = molecular target: AmpC (P99) (Enterobacter cloacae, UniProt P05364); assay: as above
[4] = molecular target: T2, OXA-1 (Escherichia coli, UniProt P13661); assay: as above; assay type: biochemical; conditions: class (D); nitrocefin 200 μM, 30 min pre-incubation; read-out: IC50 β-lactamase OXA-1
T2 construct: made in house; host or cells: E. coli

[5] = test system: E. cloacae UFR85 (TEM-1, CTX-M-15, AmpC); assay: MIC of compounds alone, broth microdilution; assay type: cell-based; conditions: Enterobacter cloacae, read-out: MIC compounds of the invention alone
Outline: (§1)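 Each compound, tested on its own, is serially diluted against a 5×10^5 cfu/mL log-phase suspension in cation-adjusted Mueller-Hinton broth following CLSI M7-A7. After 16-20 h at 35° C in air, the lowest concentration showing no visible growth gives the MIC.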

[6] = test system: K. pneumoniae UFR68 (TEM-1, SHV-11, CTX-M-15, KPC-3); assay: MIC of compounds alone, broth microdilution; assay type: cell-based; conditions: Klebsiella pneumoniae, read-out: MIC compounds of the invention alone
Outline: as §1

[7] = test system: E. cloacae UFR70 (TEM-1, CTX-M-15, CMY-2, OXA-1, Porin loss); assay: MIC of compounds alone, broth microdilution; assay type: cell-based; conditions: Enterobacter cloacae, read-out: MIC compounds of the invention alone
Outline: as §1

[8] = test system: E. cloacae 260508 (TEM-1, CTX-M-15); assay: MIC of compounds alone, broth microdilution; assay type: cell-based; conditions: Enterobacter cloacae, read-out: MIC compounds of the invention alone
Outline: as §1

[9] = molecular target: T3, OXA-11 (Pseudomonas aeruginosa, UniProt Q06778); assay: β-lactamase inhibitory activity, determination of IC50 (nitrocefin hydrolysis); assay type: biochemical
T3 construct: made in house; host or cells: E. coli

[10] = test system: E. coli UFR41 (TEM-1, CTX-M-15, CMY-2, OXA-1, NDM-4); assay: MIC of ceftazidime (CAZ) in combination with compounds at 4 μg/mL, broth microdilution; assay type: cell-based; conditions: strain UFR41; MIC of CAZ with compound fixed at 4 μg/mL
Outline: (§2)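 Compounds were dissolved in DMSO and spotted onto plates. Log-phase cells were then added at 5×10^5 cfu/mL in cation-adjusted Mueller-Hinton broth, incubated 16-20 h at 35° C, and the MIC was scored visually as the lowest growth-inhibiting concentration.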

[11] = test system: E. cloacae UFR51 (SHV-12, IMP-8); assay: as above; assay type: cell-based; conditions: strain UFR51; MIC of CAZ with compound fixed at 4 μg/mL
Outline: as §2

[12] = test system: E. coli 190317 (TEM-1, SHV-12, CTX-M-15, OXA-1); assay: MIC of compounds alone, broth microdilution; assay type: cell-based; conditions: Escherichia coli, read-out: MIC compounds of the invention alone
Outline: as §1

Sequence of AmpC (P99) (P05364 21-381): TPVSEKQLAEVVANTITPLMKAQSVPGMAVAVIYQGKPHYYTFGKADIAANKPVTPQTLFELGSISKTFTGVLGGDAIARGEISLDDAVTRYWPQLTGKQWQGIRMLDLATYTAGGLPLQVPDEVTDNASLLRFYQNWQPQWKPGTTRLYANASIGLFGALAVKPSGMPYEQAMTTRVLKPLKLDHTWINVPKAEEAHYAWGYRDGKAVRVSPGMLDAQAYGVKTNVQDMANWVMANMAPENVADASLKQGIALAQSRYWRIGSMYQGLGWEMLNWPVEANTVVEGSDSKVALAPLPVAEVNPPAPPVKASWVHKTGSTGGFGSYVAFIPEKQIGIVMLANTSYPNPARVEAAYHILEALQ
Sequence of AmpC P. aeruginosa (P24735 27-397): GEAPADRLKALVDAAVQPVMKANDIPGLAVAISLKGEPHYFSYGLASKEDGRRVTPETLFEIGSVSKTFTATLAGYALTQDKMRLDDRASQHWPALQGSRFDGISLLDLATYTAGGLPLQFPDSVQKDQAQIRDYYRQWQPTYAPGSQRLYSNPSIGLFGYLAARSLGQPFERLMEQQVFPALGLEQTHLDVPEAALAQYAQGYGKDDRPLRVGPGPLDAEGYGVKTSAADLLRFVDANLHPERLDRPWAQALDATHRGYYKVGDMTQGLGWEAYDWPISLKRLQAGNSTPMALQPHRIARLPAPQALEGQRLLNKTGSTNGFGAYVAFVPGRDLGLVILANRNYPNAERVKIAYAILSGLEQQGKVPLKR
T2 sequence (P13661 26-276): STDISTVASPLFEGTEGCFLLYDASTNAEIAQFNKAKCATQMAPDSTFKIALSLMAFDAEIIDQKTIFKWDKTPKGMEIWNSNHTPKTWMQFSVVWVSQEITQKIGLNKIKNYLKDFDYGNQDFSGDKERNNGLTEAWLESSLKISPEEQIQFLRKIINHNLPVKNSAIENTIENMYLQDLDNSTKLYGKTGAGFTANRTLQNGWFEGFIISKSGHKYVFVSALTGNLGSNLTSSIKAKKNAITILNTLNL
T1 sequence (Q51574 22-275): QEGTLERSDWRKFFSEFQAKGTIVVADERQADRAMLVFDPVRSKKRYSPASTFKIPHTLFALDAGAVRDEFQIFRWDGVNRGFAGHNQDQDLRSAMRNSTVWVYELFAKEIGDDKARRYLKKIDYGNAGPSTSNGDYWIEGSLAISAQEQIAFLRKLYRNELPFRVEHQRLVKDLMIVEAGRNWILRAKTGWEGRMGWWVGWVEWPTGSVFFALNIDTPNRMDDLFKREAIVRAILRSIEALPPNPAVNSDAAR
T3 sequence (Q06778 21-266): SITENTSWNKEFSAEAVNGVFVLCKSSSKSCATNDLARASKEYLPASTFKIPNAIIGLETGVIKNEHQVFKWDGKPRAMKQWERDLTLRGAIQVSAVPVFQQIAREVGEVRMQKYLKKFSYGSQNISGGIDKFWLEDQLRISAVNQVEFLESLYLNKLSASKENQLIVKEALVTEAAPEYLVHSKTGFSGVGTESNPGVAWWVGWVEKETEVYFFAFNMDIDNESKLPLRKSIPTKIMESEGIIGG

SMILES | pIC50 [1] | pIC50 [2] | pIC50 [3] | pIC50 [4] | MIC [5] [µg/mL] | MIC [6] [µg/mL] | MIC [7] [µg/mL] | MIC [8] [µg/mL] | pIC50 [9] | MIC combination of CAZ and compounds of the invention at 4 μg/mL [10] | MIC combination of CAZ and compounds of the invention at 4 μg/mL [11] [µg/mL] | MIC [12] [µg/mL]
O=C1N2CC=C(c3cnco3)C(C2)N1OS(=O)(=O)[O-].[Na+] (centres unmarked) [Example 3, Sodium [4-(oxazol-5-yl)-7-oxo-1,6-diazabicyclo[3.2.1]oct-3-en-6-yl]sulfate] | 7.48 | 5.70 | 6.11 | 6.68 | > 32 | > 32 | 8 | 16 | 5.96 | >64 µg/mL | <0.25 | 
Cn1cc(C2=CCN3CC2N(OS(=O)(=O)[O-])C3=O)cnc1=O.[Na+] (centres unmarked) [Example 15, Sodium [4-(N-methyl-2-oxo-pyrimidin-5-yl)-7-oxo-1,6-diazabicyclo[3.2.1]oct-3-en-6-yl] sulfate] | 6.54 | 5.46 | 5.70 | 5.96 | > 32 | > 32 | 8 |  | 5.59 |  | 1 | 
Cn1ncc(C2=CCN3CC2N(OS(=O)(=O)[O-])C3=O)cc1=O.[Na+] (centres unmarked) [Example 19, Sodium [4-(1-methyl-6-oxo-pyridazin-4-yl)-7-oxo-1,6-diazabicyclo[3.2.1]oct-3-en-6-yl] sulfate] | 7.12 | 5.74 | 6.03 | 6.42 | > 32 | > 32 | 16 |  | 6.54 | >64 µg/mL | <0.25 | 2
O=C1N2CC(c3ncco3)=CC(C2)N1OS(=O)(=O)[O-].[Na+] (centres unmarked) [Example 25, Sodium [3-(oxazol-2-yl)-7-oxo-1,6-diazabicyclo[3.2.1]oct-3-en-6-yl]sulfate] | 6.52 | 7.01 | 7.19 | 6.51 | 2 |  | 2 | 4 | 6.72 | 0.25 µg/mL | <0.25 | 
NCc1cnc(C2=CC3CN(C2)C(=O)N3OS(=O)(=O)O)s1 (centres unmarked) [Example 38, [3-[5-(aminomethyl)thiazol-2-yl]-7-oxo-1,6-diazabicyclo[3.2.1]oct-3-en-6-yl] hydrogen sulfate] | 6.55 | 6.49 | 7.51 | 6.20 |  |  |  | > 32 | 6.25 | <=0.25 μg/mL | <0.25 | 1
O=C1N2CC(c3ncco3)=C[C@H](C2)N1OS(=O)(=O)[O-].[Na+] [Example 44, Sodium [(5R)-3-(oxazol-2-yl)-7-oxo-1,6-diazabicyclo[3.2.1]oct-3-en-6-yl] sulfate] | 7.17 | 7.12 | 8.00 | 7.06 | 2 | 4 |  |  | 7.34 | <0.25 µg/mL | <0.25 | 
